Test results reported in PMC11284788, “NN1213 – A Potent, Long-Acting, and Selective Analog of Human Amylin” (Journal of Medicinal Chemistry, 2024).
Where two headings read alike, the source gives them in different places. Numbered stars: 1 amine (or outer) side, 2 acyl side, 3 side chain; on linkers, the order of the positions; unused ones are H or OH. Bridge positions count the residues as written; N and C are the ends. Peptide text beside a SMILES is read from it. * marks the point of attachment. C20 diacid = O=C(O)CCCCCCCCCCCCCCCCCCC(=O)*; γGlu = O=C(O)[C@H](CCC(=O)[*:2])N[*:1]; AEEA = NCCOCCOCC(=O)O

Columns and labels:
[1] = target: T1, rAMY3R (Rattus norvegicus, UniProt P32214+Q9JJ73); assay: scintillation proximity binding assay, rAMY3R membranes; set-up: expressed in transfected cells; host or cells: BHK tk-ts 13, transient co-transfection (FuGENE 6); conditions: for ratio rCTR/rAMY3R: ratio of binding IC50 values
T1 sequence (P32214 25-479 isoform P32214-2 limits assumed): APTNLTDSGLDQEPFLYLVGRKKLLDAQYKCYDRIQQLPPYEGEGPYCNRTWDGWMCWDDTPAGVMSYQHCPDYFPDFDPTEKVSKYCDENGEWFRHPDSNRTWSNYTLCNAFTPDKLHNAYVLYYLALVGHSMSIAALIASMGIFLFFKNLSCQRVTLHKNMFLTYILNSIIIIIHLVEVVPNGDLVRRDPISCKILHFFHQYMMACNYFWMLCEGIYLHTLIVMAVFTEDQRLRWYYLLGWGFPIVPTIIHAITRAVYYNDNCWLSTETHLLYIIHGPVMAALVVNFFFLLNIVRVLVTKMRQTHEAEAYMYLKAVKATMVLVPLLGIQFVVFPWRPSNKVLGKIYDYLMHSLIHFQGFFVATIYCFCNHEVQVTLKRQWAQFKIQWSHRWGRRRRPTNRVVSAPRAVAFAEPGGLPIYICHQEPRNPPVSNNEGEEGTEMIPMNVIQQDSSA
T1 sequence (Q9JJ73 23-147 partner): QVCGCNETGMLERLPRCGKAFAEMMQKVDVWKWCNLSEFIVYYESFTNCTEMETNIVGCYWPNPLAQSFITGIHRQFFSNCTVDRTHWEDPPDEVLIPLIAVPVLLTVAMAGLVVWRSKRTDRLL

[2] = target: T2, hAMY3R (Homo sapiens, UniProt O60896+P30988); assay: cAMP-responsive element luciferase reporter assay, human AMY3R; assay type: cell-based; set-up: expressed in transfected cells; conditions: for hAMY3R pEC50 / EC50: luciferase (human receptor assay); for ratio hCTR/hAMY3R: ratio of luciferase EC50 values
T2 sequence (P30988 25-474): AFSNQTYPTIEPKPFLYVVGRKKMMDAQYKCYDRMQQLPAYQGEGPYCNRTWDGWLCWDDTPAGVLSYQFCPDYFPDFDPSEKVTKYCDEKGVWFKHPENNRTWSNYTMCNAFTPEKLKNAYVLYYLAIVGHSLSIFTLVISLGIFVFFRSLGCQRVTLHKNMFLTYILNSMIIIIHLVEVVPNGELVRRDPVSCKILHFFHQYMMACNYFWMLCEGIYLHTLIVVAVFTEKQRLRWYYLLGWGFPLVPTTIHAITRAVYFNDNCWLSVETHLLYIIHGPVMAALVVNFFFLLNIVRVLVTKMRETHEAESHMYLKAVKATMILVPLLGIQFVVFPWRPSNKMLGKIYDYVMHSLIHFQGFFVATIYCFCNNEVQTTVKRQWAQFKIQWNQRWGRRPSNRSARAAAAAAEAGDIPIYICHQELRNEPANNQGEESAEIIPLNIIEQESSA
T2 sequence (O60896 24-148 partner): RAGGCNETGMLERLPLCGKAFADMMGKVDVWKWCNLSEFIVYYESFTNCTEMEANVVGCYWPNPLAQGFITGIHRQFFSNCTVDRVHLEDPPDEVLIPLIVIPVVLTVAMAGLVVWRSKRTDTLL

[3] = target: T2, hAMY3R; assay: scintillation proximity binding assay, hAMY3R membranes; set-up: expressed in transfected cells; host or cells: BHK tk-ts 13, transient co-transfection; membranes for the SPA, whole cells for the species-specific assays; conditions: for ratio hCTR/hAMY3R: ratio of binding IC50 values
[4] = SPA binding assay, Tables S13 and S15, read-out: rAMY3R pIC50 (converted)
[5] = SPA, BHK cell membranes, 125I-rat amylin, 120 min 25 °C, read-out: rAMY3R IC50
[6] = SPA binding assay, Tables S13 and S15, read-out: hAMY3R pIC50 (converted)
[7] = SPA, BHK cell membranes, 125I-rat amylin, 120 min 25 °C, read-out: hAMY3R IC50
[8] = SPA binding assay, Tables S13 and S15

SMILES | IC50 [1, 4] [nM] | IC50 [1, 5] [nM] | ratio rCTR/rAMY3R [1] | hAMY3R pEC50 ([2]; Tables S12 and S14) | ratio hCTR/hAMY3R [2] | IC50 [3, 6] [nM] | IC50 [3, 7] [nM] | ratio hCTR/hAMY3R [3] | rAMY3R pIC50 [1, 8] | hAMY3R pIC50 [3, 8] | EC50 ([2]; Tables S12 and S14, read-out: hAMY3R pEC50 (converted)) [nM] | EC50 ([2]; BHK cells stably expressing hCTR+RAMP3 and CRE-luciferase, 3 h, 37 °C, 10% FBS, read-out: hAMY3R EC50) [nM]
CC[C@H](C)[C@H](NC(=O)[C@H](C)NC(=O)CNC(=O)[C@H](Cc1ccccc1)NC(=O)[C@H](CC(N)=O)NC(=O)[C@@H]1CCCN1C(=O)[C@H](CO)NC(=O)[C@H](CO)NC(=O)[C@H](Cc1c[nH]cn1)NC(=O)[C@H](CCCNC(=N)N)NC(=O)[C@H](CC(C)C)NC(=O)[C@H](Cc1ccccc1)NC(=O)[C@H](CC(N)=O)NC(=O)[C@H](C)NC(=O)[C@H](CC(C)C)NC(=O)[C@H](CCCNC(=N)N)NC(=O)[C@H](CCC(N)=O)NC(=O)[C@@H](NC(=O)[C@H](C)NC(=O)[C@@H]1CSSC[C@H](NC(=O)[C@@H](N)CCCCNC(=O)CC[C@H](NC(=O)CCCCCCCCCCCCCCCCCCC(=O)O)C(=O)O)C(=O)N[C@@H](CC(N)=O)C(=O)N[C@@H]([C@@H](C)O)C(=O)N[C@@H](C)C(=O)N[C@@H]([C@@H](C)O)C(=O)N1)[C@@H](C)O)C(=O)N1CCC[C@H]1C(=O)N[C@@H](CO)C(=O)N[C@@H](CO)C(=O)N[C@H](C(=O)N[C@@H](CC(N)=O)C(=O)N[C@H](C(=O)NCC(=O)N[C@@H](CO)C(=O)N[C@@H](CCCCN)C(=O)N[C@H](C(=O)N[C@@H](Cc1ccc(O)cc1)C(N)=O)[C@@H](C)O)C(C)C)[C@@H](C)O [Peptide 14] | 0.912 | 0.92 | 60 | 9.44 | 15 | 0.891 | 0.885 | 48 | – | – | – | –
CC[C@H](C)[C@H](NC(=O)[C@H](C)NC(=O)CNC(=O)[C@H](Cc1ccccc1)NC(=O)[C@H](CC(N)=O)NC(=O)[C@@H]1CCCN1C(=O)[C@H](CO)NC(=O)[C@H](CO)NC(=O)[C@H](Cc1c[nH]cn1)NC(=O)[C@H](CCCNC(=N)N)NC(=O)[C@H](CC(C)C)NC(=O)[C@H](Cc1ccccc1)NC(=O)[C@H](CC(N)=O)NC(=O)[C@H](C)NC(=O)[C@H](CC(C)C)NC(=O)[C@H](CCCNC(=N)N)NC(=O)[C@H](CCC(N)=O)NC(=O)[C@@H](NC(=O)[C@H](C)NC(=O)[C@@H]1CSSC[C@H](NC(=O)[C@H](CCCCN)NC(=O)CC[C@H](NC(=O)CCCCCCCCCCCCCCCCCCC(=O)O)C(=O)O)C(=O)N[C@@H](CC(N)=O)C(=O)N[C@@H]([C@@H](C)O)C(=O)N[C@@H](C)C(=O)N[C@@H]([C@@H](C)O)C(=O)N1)[C@@H](C)O)C(=O)N1CCC[C@H]1C(=O)N[C@@H](CO)C(=O)N[C@@H](CO)C(=O)N[C@H](C(=O)N[C@@H](CC(N)=O)C(=O)N[C@H](C(=O)NCC(=O)N[C@@H](CCCNC(=N)N)C(=O)N[C@@H](CC(N)=O)C(=O)N[C@H](C(=O)N[C@@H](Cc1ccc(O)cc1)C(N)=O)[C@@H](C)O)C(C)C)[C@@H](C)O [Peptide 16] | – | 1.77 | 55 | 9.66 | 12 | – | 0.662 | 29 | 8.75 | 9.18 | – | –
CC[C@H](C)[C@H](NC(=O)[C@H](C)NC(=O)CNC(=O)[C@H](Cc1ccccc1)NC(=O)[C@H](CC(N)=O)NC(=O)[C@@H]1CCCN1C(=O)[C@H](CO)NC(=O)[C@H](CO)NC(=O)[C@H](Cc1c[nH]cn1)NC(=O)[C@H](CCCNC(=N)N)NC(=O)[C@H](CC(C)C)NC(=O)[C@H](Cc1ccccc1)NC(=O)[C@H](CC(N)=O)NC(=O)[C@H](C)NC(=O)[C@H](CC(C)C)NC(=O)[C@H](CCCNC(=N)N)NC(=O)[C@H](CCC(N)=O)NC(=O)[C@@H](NC(=O)[C@H](C)NC(=O)[C@@H]1CSSC[C@H](NC(=O)[C@H](CCCCN)NC(=O)CC[C@H](NC(=O)CCCCCCCCCCCCCCCCCCC(=O)O)C(=O)O)C(=O)N[C@@H](CC(N)=O)C(=O)N[C@@H]([C@@H](C)O)C(=O)N[C@@H](C)C(=O)N[C@@H]([C@@H](C)O)C(=O)N1)[C@@H](C)O)C(=O)N1CCC[C@H]1C(=O)N[C@@H](CO)C(=O)N[C@@H](CO)C(=O)N[C@H](C(=O)N[C@@H](CC(N)=O)C(=O)N[C@H](C(=O)NCC(=O)N[C@@H](Cc1c[nH]cn1)C(=O)N[C@@H](CC(N)=O)C(=O)N[C@H](C(=O)N[C@@H](Cc1ccc(O)cc1)C(N)=O)[C@@H](C)O)C(C)C)[C@@H](C)O [Peptide 17] | 1.29 | 1.29 | 39 | – | 17 | 0.479 | 0.484 | 29 | – | – | 0.151 | 0.151
CC[C@H](C)[C@H](NC(=O)[C@H](C)NC(=O)CNC(=O)[C@H](Cc1ccccc1)NC(=O)[C@H](CC(N)=O)NC(=O)[C@@H]1CCCN1C(=O)[C@H](CO)NC(=O)[C@H](CO)NC(=O)[C@H](Cc1c[nH]cn1)NC(=O)[C@H](CCCNC(=N)N)NC(=O)[C@H](CC(C)C)NC(=O)[C@H](Cc1ccccc1)NC(=O)[C@H](CC(N)=O)NC(=O)[C@H](C)NC(=O)[C@H](CC(C)C)NC(=O)[C@H](CCCNC(=N)N)NC(=O)[C@H](CCC(N)=O)NC(=O)[C@@H](NC(=O)[C@H](C)NC(=O)[C@@H]1CSSC[C@H](NC(=O)[C@H](CCCCN)NC(=O)COCCOCCNC(=O)CC[C@H](NC(=O)CCCCCCCCCCCCCCCCCCC(=O)O)C(=O)O)C(=O)N[C@@H](CC(N)=O)C(=O)N[C@@H]([C@@H](C)O)C(=O)N[C@@H](C)C(=O)N[C@@H]([C@@H](C)O)C(=O)N1)[C@@H](C)O)C(=O)N1CCC[C@H]1C(=O)N[C@@H](CO)C(=O)N[C@@H](CO)C(=O)N[C@H](C(=O)N[C@@H](CC(N)=O)C(=O)N[C@H](C(=O)NCC(=O)N[C@@H](CO)C(=O)N[C@@H](Cc1c[nH]cn1)C(=O)N[C@H](C(=O)N[C@@H](Cc1ccc(O)cc1)C(N)=O)[C@@H](C)O)C(C)C)[C@@H](C)O [Peptide 18] ({C20 diacid-γGlu-AEEA}-KCNTATCATQRLANFLRHSSPNFGAIPSSTNVGSHTY-NH2; disulfide 2-7; N-terminus assumed) | – | – | 57 | – | 19 | – | – | 19 | – | – | – | –
CC[C@H](C)[C@H](NC(=O)[C@H](C)NC(=O)CNC(=O)[C@H](Cc1ccccc1)NC(=O)[C@H](CC(N)=O)NC(=O)[C@@H]1CCCN1C(=O)[C@H](CO)NC(=O)[C@H](CO)NC(=O)[C@H](Cc1c[nH]cn1)NC(=O)[C@H](CCCNC(=N)N)NC(=O)[C@H](CC(C)C)NC(=O)[C@H](Cc1ccccc1)NC(=O)[C@H](CC(N)=O)NC(=O)[C@H](C)NC(=O)[C@H](CC(C)C)NC(=O)[C@H](CCCNC(=N)N)NC(=O)[C@H](CCC(N)=O)NC(=O)[C@@H](NC(=O)[C@H](C)NC(=O)[C@@H]1CSSC[C@H](NC(=O)[C@H](CCCNC(=N)N)NC(=O)CNC(=O)CC[C@H](NC(=O)CCCCCCCCCCCCCCCCCCC(=O)O)C(=O)O)C(=O)N[C@@H](CC(N)=O)C(=O)N[C@@H]([C@@H](C)O)C(=O)N[C@@H](C)C(=O)N[C@@H]([C@@H](C)O)C(=O)N1)[C@@H](C)O)C(=O)N1CCC[C@H]1C(=O)N[C@@H](CO)C(=O)N[C@@H](CO)C(=O)N[C@H](C(=O)N[C@@H](CC(N)=O)C(=O)N[C@H](C(=O)NCC(=O)N[C@@H](CO)C(=O)N[C@@H](Cc1c[nH]cn1)C(=O)N[C@H](C(=O)N[C@@H](Cc1ccc(O)cc1)C(N)=O)[C@@H](C)O)C(C)C)[C@@H](C)O [Peptide 19] ({C20 diacid-γGlu}-GRCNTATCATQRLANFLRHSSPNFGAIPSSTNVGSHTY-NH2; disulfide 3-8) | – | – | 84 | 9.65 | 6 | – | – | 45 | 9.69 | 9.46 | – | –
